# Measurements taken from ChEMBL document CHEMBL1201862, “PubChem BioAssay data set” (2004).
#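 96-well plates; 48 h exposure; 5 concentrations. Endpoints by linear interpolation between flanking doses. Not reached: highest tested concentration assigned. The concentration for 50% growth inhibition is given as GI50.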 Active and inactive are the calls of the source. Cut-off read from the data, not from the text of the source: active = GI50 up to about 1.1 µM and inactive = higher.
# Columns and labels:
# Assay in all cases: growth of human tumour cells (NCI), 48 h
# [1] = system: DU-145
# [2] = system: HCC 2998
# [3] = system: HL-60
# [4] = system: KM12
# [5] = system: MCF7
# [6] = system: NCI-H460
# [7] = system: NCI/ADR-RES
# [8] = system: OVCAR-3
# [9] = system: OVCAR-4
# [10] = system: SF-295
# [11] = system: SF-539
# [12] = system: SK-MEL-28
# [13] = system: SK-OV-3
# [14] = system: SNB-19
# [15] = system: SNB-75
# [16] = system: SW-620
# [17] = system: U-251
# [18] = system: UACC-62
# [19] = system: UO-31
# [20] = system: LOX IMVI
SMILES,GI50 [1],GI50 [2],GI50 [3],GI50 [4],GI50 [5],GI50 [6],GI50 [7],GI50 [8],GI50 [9],GI50 [10],GI50 [11],GI50 [12],GI50 [13],GI50 [14],GI50 [15],GI50 [16],GI50 [17],GI50 [18],GI50 [19],GI50 [20]
C=C(C)C(=O)N1c2ccc(OC)cc2CC1C(=O)OCC (centres undefined),> 100 µM (inactive),> 100 µM (inactive),> 10 µM (inactive),> 100 µM (inactive),> 100 µM (inactive),> 100 µM (inactive),> 100 µM (inactive),> 100 µM (inactive),> 100 µM (inactive),> 100 µM (inactive),> 100 µM (inactive),> 100 µM (inactive),> 100 µM (inactive),> 100 µM (inactive),45.2 µM (inactive),> 100 µM (inactive),> 100 µM (inactive),> 100 µM (inactive),> 100 µM (inactive),
C=CC(c1ccccc1)C1(O)c2cccc(O)c2C(=O)c2c(O)cccc21 (centres undefined),14.5 µM (inactive),10.8 µM (inactive),,12.8 µM (inactive),17.1 µM (inactive),17.3 µM (inactive),11.5 µM (inactive),18 µM (inactive),13.7 µM (inactive),14.9 µM (inactive),29.3 µM (inactive),18.8 µM (inactive),,,20.5 µM (inactive),15.1 µM (inactive),11.7 µM (inactive),,19.8 µM (inactive),16.4 µM (inactive)
CCSCC(N)C(=O)O (centres undefined),> 100 µM (inactive),,> 100 µM (inactive),> 100 µM (inactive),> 100 µM (inactive),> 100 µM (inactive),> 100 µM (inactive),> 100 µM (inactive),> 100 µM (inactive),> 100 µM (inactive),,> 100 µM (inactive),> 100 µM (inactive),> 100 µM (inactive),> 100 µM (inactive),> 100 µM (inactive),> 100 µM (inactive),> 100 µM (inactive),> 100 µM (inactive),> 100 µM (inactive)
CC(=O)c1ccc(N2CCN(C3=C(Cl)C(=O)c4c(O)ccc(O)c4C3=O)CC2)cc1,17.1 µM (inactive),15.6 µM (inactive),0.271 µM (active),10 µM (inactive),1.49 µM (inactive),16.8 µM (inactive),9.1 µM (inactive),5.19 µM (inactive),3.14 µM (inactive),18.8 µM (inactive),13.8 µM (inactive),5.21 µM (inactive),,20.7 µM (inactive),12.7 µM (inactive),3.02 µM (inactive),3.4 µM (inactive),2.74 µM (inactive),10.9 µM (inactive),
CSCCC(NC(c1ccccc1)c1ccccc1)[PH](=O)O (centres undefined),> 100 µM (inactive),,> 100 µM (inactive),> 100 µM (inactive),> 100 µM (inactive),> 100 µM (inactive),> 100 µM (inactive),> 100 µM (inactive),> 100 µM (inactive),> 100 µM (inactive),,> 100 µM (inactive),> 100 µM (inactive),> 100 µM (inactive),> 100 µM (inactive),> 100 µM (inactive),> 100 µM (inactive),> 100 µM (inactive),> 100 µM (inactive),> 100 µM (inactive)
O=C(O)C1C(C(=O)O)C(C(=O)O)C1C(=O)O (centres undefined),> 100 µM (inactive),,,> 100 µM (inactive),> 100 µM (inactive),> 100 µM (inactive),> 100 µM (inactive),> 100 µM (inactive),> 100 µM (inactive),> 100 µM (inactive),> 100 µM (inactive),> 100 µM (inactive),> 100 µM (inactive),> 100 µM (inactive),> 100 µM (inactive),> 100 µM (inactive),> 100 µM (inactive),> 100 µM (inactive),> 100 µM (inactive),> 100 µM (inactive)
O[C@@H]1C[C@H](Cl)c2c(Cl)sc(Cl)c21,> 100 µM (inactive),> 100 µM (inactive),,> 100 µM (inactive),13 µM (inactive),> 100 µM (inactive),> 100 µM (inactive),> 100 µM (inactive),> 100 µM (inactive),> 100 µM (inactive),> 100 µM (inactive),> 100 µM (inactive),> 100 µM (inactive),> 100 µM (inactive),> 100 µM (inactive),> 100 µM (inactive),> 100 µM (inactive),> 100 µM (inactive),> 100 µM (inactive),> 100 µM (inactive)
O=C1/C(=C/c2ccc(Br)s2)NC(=S)N1CN1CCOCC1,53.2 µM (inactive),> 100 µM (inactive),23.9 µM (inactive),84.3 µM (inactive),25.1 µM (inactive),49.8 µM (inactive),64.9 µM (inactive),59.3 µM (inactive),61.9 µM (inactive),95.5 µM (inactive),,40.4 µM (inactive),,> 100 µM (inactive),85.5 µM (inactive),36.4 µM (inactive),43 µM (inactive),20.2 µM (inactive),37.5 µM (inactive),24.5 µM (inactive)
COC(NC(N)=O)C(=O)O (centres undefined),> 100 µM (inactive),,0.495 µM (active),> 100 µM (inactive),> 100 µM (inactive),> 100 µM (inactive),> 100 µM (inactive),> 100 µM (inactive),> 100 µM (inactive),> 100 µM (inactive),> 100 µM (inactive),> 100 µM (inactive),> 100 µM (inactive),> 100 µM (inactive),> 100 µM (inactive),> 100 µM (inactive),> 100 µM (inactive),> 100 µM (inactive),> 100 µM (inactive),
O=c1[nH]c(=O)n(CCOc2ccc(Cl)cc2)cc1Nc1ccccc1,> 100 µM (inactive),> 100 µM (inactive),> 100 µM (inactive),> 100 µM (inactive),> 100 µM (inactive),> 100 µM (inactive),> 100 µM (inactive),85.3 µM (inactive),49 µM (inactive),12.4 µM (inactive),,> 100 µM (inactive),,> 100 µM (inactive),,> 100 µM (inactive),> 100 µM (inactive),> 100 µM (inactive),58.5 µM (inactive),> 100 µM (inactive)
N=C(N)NS(=O)(=O)c1ccc(/N=N/c2c(O)c(C(=O)O)cc3ccccc23)cc1,> 100 µM (inactive),> 100 µM (inactive),> 100 µM (inactive),> 100 µM (inactive),> 100 µM (inactive),> 100 µM (inactive),> 100 µM (inactive),> 100 µM (inactive),> 100 µM (inactive),> 100 µM (inactive),> 100 µM (inactive),> 100 µM (inactive),> 100 µM (inactive),,> 100 µM (inactive),> 100 µM (inactive),> 100 µM (inactive),> 100 µM (inactive),> 100 µM (inactive),
COc1ccccc1N1CCN(CCCNC(=O)c2cc(Cl)c(N)c(Cl)c2)CC1,88.1 µM (inactive),21.5 µM (inactive),15.5 µM (inactive),26.9 µM (inactive),35.2 µM (inactive),23.3 µM (inactive),36.8 µM (inactive),,52 µM (inactive),16.3 µM (inactive),28.6 µM (inactive),32.4 µM (inactive),69.8 µM (inactive),41.3 µM (inactive),59.3 µM (inactive),37.5 µM (inactive),27 µM (inactive),35 µM (inactive),21.9 µM (inactive),
CCC(CCN)(CCN)[N+](=O)[O-],> 100 µM (inactive),,> 100 µM (inactive),> 100 µM (inactive),> 100 µM (inactive),> 100 µM (inactive),> 100 µM (inactive),,,> 100 µM (inactive),> 100 µM (inactive),,> 100 µM (inactive),,> 100 µM (inactive),> 100 µM (inactive),> 100 µM (inactive),> 100 µM (inactive),,
O=C1C[C@@H](c2ccccc2)O[C@@H](c2ccccc2)C1,> 100 µM (inactive),> 100 µM (inactive),,> 100 µM (inactive),> 100 µM (inactive),> 100 µM (inactive),> 100 µM (inactive),> 100 µM (inactive),> 100 µM (inactive),> 100 µM (inactive),> 100 µM (inactive),,> 100 µM (inactive),> 100 µM (inactive),> 100 µM (inactive),> 100 µM (inactive),> 100 µM (inactive),> 100 µM (inactive),> 100 µM (inactive),> 100 µM (inactive)
CCCc1c(OC)c(=O)c2c(O)cc(OC)c3c4c(OC)cc(O)c5c(=O)c(OC)c(CCC)c(c1c23)c54,3.76 µM (inactive),14.7 µM (inactive),,8.57 µM (inactive),3.43 µM (inactive),3.16 µM (inactive),5.26 µM (inactive),3.47 µM (inactive),3.72 µM (inactive),9.62 µM (inactive),1.49 µM (inactive),5.68 µM (inactive),9.77 µM (inactive),4.32 µM (inactive),1.59 µM (inactive),3.15 µM (inactive),0.615 µM (active),10.3 µM (inactive),2.62 µM (inactive),1.63 µM (inactive)
COC(OC)C1OCC(n2cc(F)c(=O)[nH]c2=O)C1O (centres undefined),> 100 µM (inactive),> 100 µM (inactive),,> 100 µM (inactive),> 100 µM (inactive),> 100 µM (inactive),> 100 µM (inactive),> 100 µM (inactive),> 100 µM (inactive),> 100 µM (inactive),> 100 µM (inactive),> 100 µM (inactive),> 100 µM (inactive),> 100 µM (inactive),> 100 µM (inactive),> 100 µM (inactive),> 100 µM (inactive),> 100 µM (inactive),> 100 µM (inactive),> 100 µM (inactive)
